# Assay results from patent US6117869A, “Compounds for and methods of inhibiting matrix metalloproteinases” (Warner-Lambert Company, priority 1999, dated 2000).
# Tests used:
# MMP-1 = target: T1, MMP-1 (Homo sapiens, UniProt P03956); assay: Thiopeptolide assay, MMP-1; format: biochemical; details: full-length enzyme, 5 nM; pH 7.0; 100 μM thiopeptolide substrate
# T1 construct: purchased Washington University School of Medicine, St. Louis, Mo
# T1 sequence (P03956 100-469): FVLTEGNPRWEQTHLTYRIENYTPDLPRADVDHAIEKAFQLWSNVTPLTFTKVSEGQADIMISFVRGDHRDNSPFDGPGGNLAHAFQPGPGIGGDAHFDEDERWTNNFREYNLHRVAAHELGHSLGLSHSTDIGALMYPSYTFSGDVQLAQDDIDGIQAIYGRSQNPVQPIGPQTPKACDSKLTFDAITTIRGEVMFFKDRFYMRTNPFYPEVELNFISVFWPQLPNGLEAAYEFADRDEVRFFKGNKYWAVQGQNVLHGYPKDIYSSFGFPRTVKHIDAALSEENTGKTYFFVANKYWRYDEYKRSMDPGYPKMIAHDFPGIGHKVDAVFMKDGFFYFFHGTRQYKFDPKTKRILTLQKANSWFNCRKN
# Experimental: (§1) IC50 values were determined using a thiopeptolide substrate, Ac-Pro-Leu-Gly-thioester-Leu-Leu-Gly-OEt (Ye Q. Z., Johnson L. L., Hupe D. J., and Baragi V., "Purification and Characterization of the Human Stromelysin Catalytic Domain Expressed in Escherichia coli," Biochemistry,1992;31:11231-11235). MMP-1, MMP-7, and MMP-13 activity was assayed in a method similar to MMP-2 and MMP-3 (SCD and GCD). MMP-1 can be obtained from Washington University School of Medicine, St. Louis, Mo. MMP-7 can be obtained in accordance with the known procedure set forth by Ye Q. Z., Johnson L. L., and Baragi V., "Gene Syntheses and Expression in E. coli for PUMP, a Human Matrix Metalloproteinase," Biochem. and Biophys. Res. Comm., 1992;186:143-149. MMP13 can be obtained in accordance with the known procedure set forth by Freije J. M. P. et al., "Molecular Cloning and Expression of Collegenase-3, a Novel Human Matrix Metalloproteinase Produced by Breast Carcinomas," J. Bio. Chem., 1994;269:16766-16773.
# (§2) Hydrolysis of the thiopeptolide substrate Ac-Pro-Leu-Gly-thioester-Leu-Leu-Gly-OEt (Bachem) is used as the primary screen to determine IC50 values for MMP inhibitors. A 100 μL reaction contains 1 mM 5,5'-dithiobis(2-nitrobenzoic acid) (DTNB), 100 μM substrate, 0.1% BRIJ® 35, PROTEIN GRADE®, Detergent, 10% solution, Sigma, St. Louis, Mo. [polyoxyethyleneglycol dodecyl ether; polyoxyethylene (23) lauryl ether], enzyme, and inhibitor in the appropriate reaction buffer. Activated full-length enzymes are assayed at 5 nM, Stromelysin Catalytic Domain (SCD) at 10 nM, and Gelatinase A Catalytic Domain (GaCD) at 1 nM. Inhibitors are screened from 100 μM to 1 nM. Full-length enzymes (MMP-1 and MMP-7) are assayed in 50 mM HEPES, 10 mM CaCl2, pH 7.0; SCD in 50 mM MES, 10 mM CaCl2, pH 6.0; and GaCD in 50 mM MOPS, 10 mM CaCl2, 10 μM ZnCl2, pH 7.0. The change in absorbance at 405 nm is monitored on a ThermoMax microplate reader at room temperature continuously for 20 minutes.
# MMP-3CD = target: T2, MMP-3CD (Homo sapiens, UniProt P08254); assay: Thiopeptolide assay, stromelysin-1 catalytic domain (SCD); format: biochemical; details: 10 nM, pH 6.0, 100 μM thiopeptolide substrate
# T2 construct: Stromelysin Catalytic Domain (SCD) at 10 nM; made in house; host or cells: Escherichia coli
# T2 sequence (P08254 100-272 limits assumed): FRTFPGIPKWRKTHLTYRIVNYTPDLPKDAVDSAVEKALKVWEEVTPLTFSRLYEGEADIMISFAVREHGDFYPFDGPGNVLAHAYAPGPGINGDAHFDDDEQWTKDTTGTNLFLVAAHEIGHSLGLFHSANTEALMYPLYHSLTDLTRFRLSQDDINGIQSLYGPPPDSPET
# Experimental: as §1, §2
# MMP-7 = target: T3, MMP-7 (Homo sapiens, UniProt P09237); assay: Thiopeptolide assay, MMP-7; format: biochemical; details: full-length enzyme, 5 nM; pH 7.0; 100 μM thiopeptolide substrate
# T3 construct: made in house; host or cells: E. coli
# T3 sequence (P09237 95-267): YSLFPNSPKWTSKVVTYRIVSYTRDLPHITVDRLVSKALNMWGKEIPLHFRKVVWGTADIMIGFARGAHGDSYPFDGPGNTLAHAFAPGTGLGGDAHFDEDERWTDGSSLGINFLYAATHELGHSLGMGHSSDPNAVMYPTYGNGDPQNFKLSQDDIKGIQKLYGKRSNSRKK
# Experimental: as §1, §2
# MMP-9 = MMP-9 (Homo sapiens, UniProt P14780); assay: Thiopeptolide assay, MMP-9; format: biochemical; details: thiopeptolide substrate
# MMP-9, sequence (P14780 94-707): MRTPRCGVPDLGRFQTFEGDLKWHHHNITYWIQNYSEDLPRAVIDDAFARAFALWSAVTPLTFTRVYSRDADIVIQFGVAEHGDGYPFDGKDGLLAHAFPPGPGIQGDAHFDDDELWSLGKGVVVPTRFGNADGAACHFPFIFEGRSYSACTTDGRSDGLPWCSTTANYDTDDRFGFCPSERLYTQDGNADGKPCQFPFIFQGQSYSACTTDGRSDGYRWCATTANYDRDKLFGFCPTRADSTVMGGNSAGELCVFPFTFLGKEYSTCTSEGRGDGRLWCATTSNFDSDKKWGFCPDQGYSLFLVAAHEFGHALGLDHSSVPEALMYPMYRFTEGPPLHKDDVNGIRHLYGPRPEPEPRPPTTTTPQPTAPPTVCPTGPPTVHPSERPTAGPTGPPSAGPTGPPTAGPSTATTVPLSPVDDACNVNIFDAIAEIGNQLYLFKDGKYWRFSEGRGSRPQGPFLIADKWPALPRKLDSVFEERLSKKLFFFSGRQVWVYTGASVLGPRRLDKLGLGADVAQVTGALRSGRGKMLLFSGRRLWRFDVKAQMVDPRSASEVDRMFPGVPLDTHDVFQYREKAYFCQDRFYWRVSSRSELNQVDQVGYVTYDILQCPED
# Experimental: [The source words this procedure for another target and reports this target under the same test.] as §1, §2
# MMP-2CD = assay: Thiopeptolide assay, gelatinase A catalytic domain (GCD/GaCD); format: biochemical; details: 1 nM, pH 7.0, 100 μM thiopeptolide substrate
# Experimental: as §1, §2
# MMP-13CD = assay: Thiopeptolide assay, MMP-13CD; format: biochemical, Human; details: catalytic domain; thiopeptolide substrate
# Experimental: as §1, §2
# MMP-14CD = assay: Thiopeptolide assay, MMP-14CD; format: biochemical; details: catalytic domain; thiopeptolide substrate
# Experimental: as §1, §2
# [1] = tested on: human ovarian carcinoma xenografts; details: mice bearing human ovarian carcinoma xenografts; cited from earlier work
# bovine nasal cartilage = details: cited from earlier work
# pig articular cartilage = details: cited from earlier work
Compound,IC50 (MMP-1) [µM],IC50 (MMP-3CD) [µM],IC50 (MMP-7) [µM],IC50 (MMP-9) [µM],IC50 (MMP-2CD) [µM],IC50 (MMP-13CD) [µM],IC50 (MMP-14CD) [µM],survival [1],tumor burden [1],formation of collagen and proteoglycan fragments (bovine nasal cartilage),formation of collagen and proteoglycan fragments (pig articular cartilage)
"O=C(O)[C@H](Cc1c[nH]c2ccccc12)NS(=O)(=O)c1ccc2c(c1)Sc1ccccc1O2 [Example 15, (S)-3-(1H-Indol-3-yl)-2-(phenoxathiine-2-sulfonylamino)-propionic acid]",> 100,0.86,54,> 100,0.91,16,3.8,–,–,–,–
CNC(=O)[C@H](Cc1ccccc1)NC(=O)[C@H](CC(C)C)[C@H](CSc1cccs1)C(=O)NO [BB-94],–,–,–,–,–,–,–,prolonged the survival,decreased the tumor burden,–,–
"C[C@H](NS(=O)(=O)c1ccc2c(c1)Sc1ccccc1O2)C(=O)O [Example 9, (S)-2-(Phenoxathiine-2-sulfonylamino)-propionic acid]",76,0.295,19,23,0.033,5.25,0.19,–,–,–,–
TIMP-1: tissue inhibitors of metalloproteinases,–,–,–,–,–,–,–,–,–,"prevented the formation of collagen fragments, but not proteoglycan fragments","prevented the formation of collagen fragments, but not proteoglycan fragments"
"O=C(O)[C@H](CSC(c1ccccc1)(c1ccccc1)c1ccccc1)NS(=O)(=O)c1ccc2c(c1)Sc1ccccc1O2 [Example 13, (R)-2-(Phenoxathiine-2-sulfonylamino)-3-tritylsulfanyl-propionic acid]",> 100,4.65,66,> 100,3.2,36,7.4,–,–,–,–
"C[S+]([O-])CC[C@H](NS(=O)(=O)c1ccc2c(c1)Sc1ccccc1O2)C(=O)O (stereo partly drawn) [Example 10, (S)-4-Methanesulfinyl-2-(phenoxathiine-2-sulfonylamino)-butyric acid]",72,0.165,9.15,38,0.0585,4.1,0.285,–,–,–,–
"O=C(O)[C@H](CCc1ccccc1)NS(=O)(=O)c1ccc2c(c1)S(=O)(=O)c1ccccc1O2 [Example 7, (S)-2-(10,10-Dioxo-10H-10λ^6-phenoxathiine-2-sulfonylamino)-4-phenyl-butyric acid]",> 100,3.75,24,> 100,2.3,73,3.7,–,–,–,–
"CC(C)C[C@H](NS(=O)(=O)c1ccc2c(c1)Sc1ccccc1O2)C(=O)O [Example 11, (S)-4-Methyl-2-(phenoxathiine-2-sulfonylamino)-pentanoic acid]",55,0.0625,8.7,18,0.0235,3.9,0.3,–,–,–,–

# More lines, main results first:
IC50 (MMP-1) [µM],IC50 (MMP-3CD) [µM],IC50 (MMP-7) [µM],IC50 (MMP-9) [µM],IC50 (MMP-2CD) [µM],IC50 (MMP-13CD) [µM],IC50 (MMP-14CD) [µM],Compound,survival [1],tumor burden [1],formation of collagen and proteoglycan fragments (bovine nasal cartilage),formation of collagen and proteoglycan fragments (pig articular cartilage)
39,0.053,6.7,19,–,–,–,"CC(C)[C@H](NS(=O)(=O)c1ccc2c(c1)Sc1ccccc1O2)C(=O)O [Example 4, (S)-3-Methyl-2-(phenoxathiine-2-sulfonylamino)-butyric acid]",–,–,–,–
> 100,0.054,7.9,16.6,0.033,1.39,0.092,"O=C(O)[C@H](CCc1ccccc1)NS(=O)(=O)c1ccc2c(c1)Sc1ccccc1O2 [Example 2, (S)-2-(Phenoxathiine-2-sulfonylamino)-4-phenyl-butyric acid]",–,–,–,–
> 100,0.44,34,> 100,0.65,4.3,4.1,"O=C(O)[C@H](CO)NS(=O)(=O)c1ccc2c(c1)Cc1ccccc1O2 [Example 6, (S)-3-Hydroxy-2-(9H-xanthene-2-sulfonylamino)-propionic acid]",–,–,–,–
> 100,0.18,23,82,0.069,1.8,0.39,"O=C(O)[C@H](CO)NS(=O)(=O)c1ccc2c(c1)Sc1ccccc1O2 [Example 5, (S)-3-Hydroxy-2-(phenoxathiine-2-sulfonylamino)-propionic acid]",–,–,–,–
87,0.12,17,18,0.09,2.3,0.2,"O=C(O)[C@H](Cc1ccc(O)cc1)NS(=O)(=O)c1ccc2c(c1)Sc1ccccc1O2 [Example 14, (S)-3-(4-Hydroxy-phenyl)-2-(phenoxathiine-2-sulfonylamino)-propionic acid]",–,–,–,–
> 100,0.41,14,53,0.113,4.4,1.55,"NC(=O)C[C@H](NS(=O)(=O)c1ccc2c(c1)Sc1ccccc1O2)C(=O)O [Example 16, (S)-2-(Phenoxathiine-2-sulfonylamino)-succinamic acid]",–,–,–,–
> 100,2,> 100,> 100,0.15,12,0.94,"O=C(O)[C@@H](NS(=O)(=O)c1ccc2c(c1)Sc1ccccc1O2)c1ccccc1 [Example 17, (S)-(Phenoxathiine-2-sulfonylamino)-phenyl-acetic acid]",–,–,–,–
> 100,0.35,91,> 100,0.17,8.7,0.5,"O=C(O)[C@H](Cc1ccccc1)NS(=O)(=O)c1ccc2c(c1)Sc1ccccc1O2 [Example 12, (S)-2-(Phenoxathiine-2-sulfonylamino)-3-phenyl-propionic acid]",–,–,–,–
> 100,6.9,27.6,> 100,15.4,> 100,40,"CC(C)[C@H](NS(=O)(=O)c1ccc2c(c1)Sc1ccccc1S2)C(=O)O [Example 1, (S)-3-Methyl-2-((thianthren-2-ylsulfonyl)amino)butanoic acid]",–,–,–,–
6.25,0.0155,19,12,0.027,0.27,0.155,"CC(C)[C@@H](NS(=O)(=O)c1ccc2c(c1)Sc1ccccc1O2)C(=O)O [Example 8, (R)-3-Methyl-2-(phenoxathiine-2-sulfonylamino)-butyric acid]",–,–,–,–
> 100,0.068,3.2,> 100,0.2,0.5,1,"O=C(O)[C@H](CCc1ccccc1)NS(=O)(=O)c1ccc2c(c1)Cc1ccccc1O2 [Example 3, (S)-4-Phenyl-2-(9H-xanthene-2-sulfonylamino)-butyric acid]",–,–,–,–
